The values below come from article PMC4032254, “Targeting of the MYCN Protein with Small Molecule c-MYC Inhibitors” (PLoS ONE, 2014).

One data set has as its target T1, MYCN/MAX interaction (Homo sapiens, UniProt P04198).
T1 construct: endogenous in cells; host or cells: SMS-KCN69n (human MYCN-amplified neuroblastoma)
T1 sequence (P04198 1-464): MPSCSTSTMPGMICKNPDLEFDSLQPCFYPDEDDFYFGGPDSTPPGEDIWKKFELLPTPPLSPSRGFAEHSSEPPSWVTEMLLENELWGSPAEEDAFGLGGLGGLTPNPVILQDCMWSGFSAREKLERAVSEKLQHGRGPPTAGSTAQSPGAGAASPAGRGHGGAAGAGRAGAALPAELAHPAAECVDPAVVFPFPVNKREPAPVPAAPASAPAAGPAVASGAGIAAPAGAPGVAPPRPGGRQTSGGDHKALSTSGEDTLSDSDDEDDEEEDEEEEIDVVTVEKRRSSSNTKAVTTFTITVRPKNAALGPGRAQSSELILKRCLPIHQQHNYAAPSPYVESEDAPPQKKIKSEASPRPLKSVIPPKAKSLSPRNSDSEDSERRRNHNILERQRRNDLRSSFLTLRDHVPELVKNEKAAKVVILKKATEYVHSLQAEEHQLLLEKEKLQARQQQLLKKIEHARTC
Put plainly: Proximity ligation assay (PLA) for MYCN/MAX interaction in SMS-KCN69n cells. It is filed as cell-based. The following applies: 6 hours treatment, compared to DMSO. The text has this: To investigate if the other small molecules also have an effect on MYCN/MAX dimerization we performed a proximity ligation assay (PLA) using MYCN-amplified SMS-KCN69n NB cells. […] No signal was detected in any of the experimental negative controls (Figure S4).
Figure 3 Reduction of MYCN/MAX interaction in NB cells after treatment with small molecules. A) Proximity ligation assay (PLA) for MYCN/MAX interaction after treatment of SMS-KCN69n cells with the different small molecules at the indicated concentrations for 6 hours. […] DNA is stained with DAPI. Scale bar: […]. The pictures are representative from three independent experiments. B) Quantification of the PLA signals per cell after treatment with the different compounds. Error bars indicate standard error of the mean.
40×10^3 SMS-KCN69n cells were seeded on collagen coated coverslips and grown for 24 hours and treated for 6 hours the next day. After 6 hours the cells were washed in PBS and treated as previously described. The PLA assay was performed after manufacturer's instructions with the Duolink kit (Olink, Uppsala, Sweden). The cells were incubated with primary antibody against MYCN (NCMII100, St Cruz Bio) 1∶500 and Max (C-17, St Cruz Bio) 1∶500 for 1 hour in a humidity chamber at 37°C, which were diluted in antibody diluent provided by the manufacturer. MYCN (1∶500) and FAS (A-20, St Cruz Bio) 1∶500 as well as MAX (1∶500) and GFP (C-2, St Cruz Bio) 1∶500 antibodies were used in combination in order to test for any unspecific binding of the secondary antibodies or unspecific signals. […]
The confocal images of the cells were acquired at 63× magnification using a motorized axiovert fluorescence microscope 200 M LCI (Zeiss GmBH, Göttingen, Germany) including a CSU10 Yokogawa head; a multilens/multipinhole array aperture (Yokogawa, Japan), an ORCA ER cold CCD camera; detector array 1344×1024px (Hammamatsu, Japan) and two continuous wave diode-pumped solid-state (DPSS) lasers for fluorescence excitation (Cobolt, Sweden); Cobolt Calypso 491 nm DPSS (excitation of green PLA fluorophore) and Cobolt Jive 561 nm DPSS (excitation of Alexa Fluor 568). […] A total amount of at least 120 cells were analyzed for all compounds. The PLA signals were analyzed using the open source image analysis program Image J (NIH, Bethseda, USA) and the amount of PLA signal per cell was calculated. Two persons analyzed the images independently in a blind fashion.
In order to quantify the PLA signal from the total z-depth of each cell confocal z-stacks was projected in z and identically processed regarding background subtraction. The PLA signal was then quantified blindly and automatically using a find maxima-based algorithm in ImageJ (plugin routine developed by Dr. E. Flaberg and Professor L. Szekely, KI and available upon request). […]

Another data set deals with Kelly cells. Put plainly: Crystal violet growth inhibition assay in Kelly cells. The following applies: 48 h treatment. It is filed as cell-based, human. The text has this: Error bars indicate standard deviation. […] Error bars indicate standard deviation.
The subject of another data set is Tet21N cells. Put plainly: Apoptosis in Tet21N cells with doxycycline regulated MYCN expression. It is filed as cell-based, human. The following applies: 48 hour treatment. The source says:
GAPDH was used as loading control. […] Error bars indicate standard error. (TIF) Click here for additional data file.

In another data set the test system is SK-N-BE(2) cells. The data set is described as follows: Apoptosis, propidium iodide sub G1 DNA content, SK-N-BE(2). The class given is cell-based, human. As to the method:
Figure 5 Growth inhibition and apoptosis induction in MYCN amplified cells. (A) The amount of viable of cells was determined using crystal violet assay following 48 hours treatment of Kelly cells with increasing concentration of the indicated compound. Data are shown as percent of control (DMSO) treated cells and represent the mean of three independent experiments. Error bars indicate standard deviation. (B) Pearson's correlation between the IC50 values in the growth inhibition assay (A, Table 2) and the KD values for binding to MYCN (Table 1). (C–D) Quantification of apoptosis by propidium iodide staining for sub G1 DNA content of SK-N-BE(2) (C) and Kelly (D) cells. Data represent the means of at least three independent experiments. Error bars indicate standard deviation. We next investigated the level of apoptosis induction in response to treatment with the molecules using two different MNA NB cell lines (Figure 5C, D). […] To verify the MYCN specificity in apoptosis induction, we next used Tet21N NB cells with doxycycline regulated MYCN expression. […] Small molecule-induced apoptosis was scored by quantifying the sub-G0/G1 fraction of the cell cycle. […] Cells were stained with propidium iodide solution (5 µg/ml propidium iodide and 25 µg/ml RNase A in PBS) for 30 min at 37°C and analyzed in a FACScan flow cytometer (Becton Dickinson). […]

Data set [1] is described as follows: Solubility in aqueous buffers (SPR running buffer). It is filed as physicochemical. The following applies: could not be analyzed at concentrations above 50 µM. As to the method: For all SPR binding measurements the compounds were injected at increasing concentrations.
Data set [2] deals with Burkitt's lymphoma cell line xenograft. Details: method as in PMID 20801893. The following applies: cited from earlier work.

As usually defined, the IC50 is the point on the concentration scale where inhibition reaches its midpoint. High values mean weaker potency, low ones greater potency. Consider `CCc1ccc(C=C2SC(=S)NC2=O)cc1` [Compound 10058-F4, [Z,E]-5-[4-ethylbenzylidine]-2-thioxothiazolidin-4-one], for which the “effect on MYCN/MAX interaction (PLA)” value at MYCN/MAX interaction is “reduced the MYCN/MAX interaction”. In addition, half-maximal inhibition in the data set on Kelly cells (IC50) required 41.1 µM. In addition, the “apoptosis induction in cells with high vs low MYCN” value with Tet21N cells was “cells with low MYCN-levels were less sensitive”.

Regarding `O=[N+]([O-])c1ccc(Nc2ccccc2-c2ccccc2)c2nonc12` [Compound 10074-G5], at MYCN/MAX interaction, the “effect on MYCN/MAX interaction (PLA)” value is given as “reduced the MYCN/MAX interaction”. The same molecule had an IC50 in the data set on Kelly cells of 22.5 µM. For the same molecule, the “apoptosis (cell death) induction relative to 10058-F4” value in the data set on SK-N-BE(2) cells is “more potent than 10058-F4 in inducing cell death”. Besides, in the data set with Tet21N cells, the “apoptosis induction in cells with high vs low MYCN” value was “MYCN dependent induction of apoptosis”. Also, the “solubility in aqueous buffers” value in data set [1] is “especially poor solubility in aqueous buffers”. The “antitumor activity in Burkitt's lymphoma xenograft” value in data set [2] is “failed to show any antitumor activity”.
